Test results: patent publication EP3221422B1, “COPPER(I) COMPLEXES FOR OPTOELECTRONIC APPLICATIONS” (cynora GmbH, priority 2014, dated 2016)

Experiment: Solubility tests of copper(I) complexes in organic solvents
Type: physicochemical
Details: for Löslichkeit (qualitative): effect of the unsymmetrical ligand m-Tolylphosphin s
Protocol: Bei Koordination an ein Kupferatom könnten die m-Tolyl-Gruppen jeweils auf zwei verschiedene Weisen gedreht vorliegen (Figur 5). Vermutlich wird auf dieses Weise die Packung im Festkörper gestört, wodurch eine höhere Löslichkeit erzielt wird. In der Wärme (60 °C) wurde beispielsweise für Komplex 1-I-s eine Löslichkeit von rund 40 mg mL^-1 erreicht; weitere Löslichkeitsdaten sind in Tabelle 1 aufgeführt.
Komplex 1-I-s zeigt neben einer guten Löslichkeit auch eine besonders hohe Quanteneffizienz, sowohl in Pulver (93%) als auch im Dünnfilm (90%). Interessanterweise kommt es bei der Filmpräparation dieser Verbindung zu nahezu keiner Verschiebung der Emissionswellenlänge (Film: 550 nm, Pulver: 547 nm). Offenbar liegt bereits im Festkörper eine Verzerrung ähnlich der Situation im Film vor. Die Struktur wird, wie oben erläutert wurde, durch die als sterisch anspruchsvolle Gruppen wirkenden Tolylreste stabilisiert. Tabelle 1: Löslichkeitstests für Komplex 1-I-s.

(MePyrPHOS)(Tris-m-tolyl-phosphin)2Cu2I2 [Komplex 1-I-s]
≤ 20 mg/mL: Löslichkeit (max.) (Mesitylen) | Löslichkeit (max.) (O-Xylol) | Löslichkeit (max.) (Tetralin)
Nein: Löslichkeit (Cyclooctan, Konzentration: 10 mg/mL)
erhöhte Löslichkeit: Löslichkeit (qualitative)
Ja: Löslichkeit (1-Heptanol, Konzentration: 2,5 mg/mL) | Löslichkeit (1-Hexanol, Konzentration: 2,5 mg/mL) | Löslichkeit (Aceton, Konzentration: 5 mg/mL) | Löslichkeit (Aceton, Konzentration: 10 mg/mL) | Löslichkeit (Aceton, Konzentration: 2,5 mg/mL) | Löslichkeit (Acetonitril, Konzentration: 2,5 mg/mL) | Löslichkeit (Cyclooctan, Konzentration: 2,5 mg/mL) | Löslichkeit (Essigester, Konzentration: 5 mg/mL) | Löslichkeit (Essigester, Konzentration: 10 mg/mL) | Löslichkeit (Essigester, Konzentration: 2,5 mg/mL) | Löslichkeit (Mesitylen, Konzentration: 5 mg/mL) | Löslichkeit (Mesitylen, Konzentration: 10 mg/mL) | Löslichkeit (Mesitylen, Konzentration: 2,5 mg/mL) | Löslichkeit (O-Xylol, Konzentration: 5 mg/mL) | Löslichkeit (O-Xylol, Konzentration: 10 mg/mL) | Löslichkeit (O-Xylol, Konzentration: 2,5 mg/mL) | Löslichkeit (Tetralin, Konzentration: 5 mg/mL) | Löslichkeit (Tetralin, Konzentration: 10 mg/mL) | Löslichkeit (Tetralin, Konzentration: 2,5 mg/mL)
~40 mg/mL: Löslichkeit (In der Wärme (60 °C), solvent not stated)
Ja (Wärme): Löslichkeit (1-Heptanol, Konzentration: 5 mg/mL) | Löslichkeit (1-Heptanol, Konzentration: 10 mg/mL) | Löslichkeit (1-Hexanol, Konzentration: 5 mg/mL) | Löslichkeit (1-Hexanol, Konzentration: 10 mg/mL) | Löslichkeit (Acetonitril, Konzentration: 5 mg/mL) | Löslichkeit (Acetonitril, Konzentration: 10 mg/mL) | Löslichkeit (Cyclooctan, Konzentration: 5 mg/mL)

(PyrPHOS)(tris-m-tolyl-phosphin)2Cu2I2 [Komplex 11-I-s]
erhöhte Löslichkeit: Löslichkeit (qualitative)

(Tris-(3-methyl-phenyl)phosphin)(4-tBu-pyridin)Cu2Br2 [E-Br-s]
erhöhte Löslichkeit: Löslichkeit (qualitative)

(Tris-(3-methyl-phenyl)phosphin)(4-tBu-pyridin)Cu2I2 [E-I-s]
erhöhte Löslichkeit: Löslichkeit (qualitative)
